Molecular target: human recombinant LRRK2 protein (Homo sapiens, UniProt Q5S007)
Experiment: LRRK2 kinase activity assay (ADP-Glo, LRRKtide peptide)
Assay type: biochemical
Settings: human recombinant LRRK2 wt, LRRKtide peptide and ATP, 1 h at 37° C.
Protocol: The inhibition of LRRK2 kinase was assessed using human recombinant LRRK2 protein in an in vitro peptide-based kinase assay.
LRRK2 Kinase reactions were carried out in 384-well white polystyrene plates in a final volume of 6 μl using ADP-Glo™ Kinase Assay kit (Promega Corp.). Compound and substrates (LRRKtide peptide and ATP) in assay buffer were first dispensed in wells. Kinase reaction was then started by the addition of human recombinant LRRK2 protein. After 1 h-incubation at 37° C., the enzymatic reactions was stopped by the addition of 6 μl of ADP-Glo Reagent-1 and an additional 40-minutes incubation at 23° C. (residual ATP depletion). A final 30-minutes incubation after 12 μL reagent-2 addition (ADP to ATP conversion and luciferin/luciferase reaction) was performed before luminescent signal acquisition (EnVision™ multimode plate reader—PerkinElmer, Inc.). Data from 10 individual concentrations of tested compounds (N=2) were fitted (XLfit™—ID Business Solutions Ltd) to deliver IC50s (compound concentration leading to 50% inhibition of reference enzymatic activity).
The compounds are dissolved to 5 mM in DMSO. When needed, solutions are sonicated in a bath sonicator.
Table 2 provides the pIC50 values of the compounds according to the invention, obtained using the above mentioned kinase assay. Activities are represented as +++, ++ and +, having the following meanings: • «+++» means an IC50<10 nM • «++» means an IC50<100 nM • «+» means an IC50<1 μM • «−» means an IC50>1 μM

Sequence of human recombinant LRRK2 protein (Q5S007 whole entry): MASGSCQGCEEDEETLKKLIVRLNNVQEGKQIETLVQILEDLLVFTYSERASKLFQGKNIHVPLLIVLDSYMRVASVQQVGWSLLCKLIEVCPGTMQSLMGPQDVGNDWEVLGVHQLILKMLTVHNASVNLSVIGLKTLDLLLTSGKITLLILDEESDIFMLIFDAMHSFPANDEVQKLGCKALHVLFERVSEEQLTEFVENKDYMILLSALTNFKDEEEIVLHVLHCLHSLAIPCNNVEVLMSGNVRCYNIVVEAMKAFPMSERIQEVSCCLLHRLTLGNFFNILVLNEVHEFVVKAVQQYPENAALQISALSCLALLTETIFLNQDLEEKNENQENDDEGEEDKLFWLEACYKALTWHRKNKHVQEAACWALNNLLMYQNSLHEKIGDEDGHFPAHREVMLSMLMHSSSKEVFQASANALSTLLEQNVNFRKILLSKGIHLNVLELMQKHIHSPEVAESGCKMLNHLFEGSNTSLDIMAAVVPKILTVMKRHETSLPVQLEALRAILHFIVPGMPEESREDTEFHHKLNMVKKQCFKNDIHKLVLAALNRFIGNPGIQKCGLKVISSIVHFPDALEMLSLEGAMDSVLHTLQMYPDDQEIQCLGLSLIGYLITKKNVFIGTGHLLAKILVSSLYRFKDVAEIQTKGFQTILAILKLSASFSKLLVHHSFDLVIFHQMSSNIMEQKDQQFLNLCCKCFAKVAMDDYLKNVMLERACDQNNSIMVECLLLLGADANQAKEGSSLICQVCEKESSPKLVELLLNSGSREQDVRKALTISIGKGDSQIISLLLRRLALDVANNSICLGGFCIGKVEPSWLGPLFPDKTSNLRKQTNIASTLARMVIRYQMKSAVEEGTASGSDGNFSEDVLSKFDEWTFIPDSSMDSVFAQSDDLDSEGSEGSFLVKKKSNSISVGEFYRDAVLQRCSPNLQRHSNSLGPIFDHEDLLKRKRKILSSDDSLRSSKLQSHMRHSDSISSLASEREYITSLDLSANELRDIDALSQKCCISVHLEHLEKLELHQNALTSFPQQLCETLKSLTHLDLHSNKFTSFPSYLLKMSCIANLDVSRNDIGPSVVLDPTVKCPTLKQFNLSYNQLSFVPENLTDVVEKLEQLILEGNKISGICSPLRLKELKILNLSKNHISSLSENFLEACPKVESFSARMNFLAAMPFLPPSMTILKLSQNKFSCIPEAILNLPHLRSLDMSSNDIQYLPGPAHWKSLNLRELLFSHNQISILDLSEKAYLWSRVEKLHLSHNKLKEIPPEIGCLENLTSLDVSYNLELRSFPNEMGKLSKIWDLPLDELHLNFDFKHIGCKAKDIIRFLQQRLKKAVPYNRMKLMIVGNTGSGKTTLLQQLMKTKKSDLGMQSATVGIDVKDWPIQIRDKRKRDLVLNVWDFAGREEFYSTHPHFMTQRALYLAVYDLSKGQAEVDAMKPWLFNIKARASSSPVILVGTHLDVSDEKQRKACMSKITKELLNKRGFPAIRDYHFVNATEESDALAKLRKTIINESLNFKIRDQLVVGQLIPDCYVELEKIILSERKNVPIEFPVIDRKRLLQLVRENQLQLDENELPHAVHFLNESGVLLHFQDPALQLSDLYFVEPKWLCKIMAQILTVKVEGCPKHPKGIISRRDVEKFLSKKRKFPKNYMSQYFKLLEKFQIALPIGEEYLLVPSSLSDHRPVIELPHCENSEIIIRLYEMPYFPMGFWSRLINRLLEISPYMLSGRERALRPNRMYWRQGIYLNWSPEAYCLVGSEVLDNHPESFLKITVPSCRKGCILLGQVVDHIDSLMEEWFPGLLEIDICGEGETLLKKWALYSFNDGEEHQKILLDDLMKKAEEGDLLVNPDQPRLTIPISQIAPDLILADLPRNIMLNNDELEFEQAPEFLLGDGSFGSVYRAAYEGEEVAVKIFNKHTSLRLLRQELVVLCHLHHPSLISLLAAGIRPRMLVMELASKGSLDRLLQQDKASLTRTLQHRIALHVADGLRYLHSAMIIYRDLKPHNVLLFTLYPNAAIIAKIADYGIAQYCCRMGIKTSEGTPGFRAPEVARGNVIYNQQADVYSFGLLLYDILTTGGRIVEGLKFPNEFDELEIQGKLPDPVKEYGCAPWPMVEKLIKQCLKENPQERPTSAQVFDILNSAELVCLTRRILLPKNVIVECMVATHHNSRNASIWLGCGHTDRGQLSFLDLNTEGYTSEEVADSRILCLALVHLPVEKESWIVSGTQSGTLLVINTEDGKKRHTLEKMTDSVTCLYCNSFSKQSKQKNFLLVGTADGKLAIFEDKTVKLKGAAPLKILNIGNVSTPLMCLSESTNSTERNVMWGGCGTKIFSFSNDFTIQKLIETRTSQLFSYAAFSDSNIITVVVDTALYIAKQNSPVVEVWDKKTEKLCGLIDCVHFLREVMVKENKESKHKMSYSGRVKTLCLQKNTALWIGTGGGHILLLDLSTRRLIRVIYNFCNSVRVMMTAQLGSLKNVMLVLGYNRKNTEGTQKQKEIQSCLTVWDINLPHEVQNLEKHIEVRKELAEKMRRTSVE

With `COC1CN(c2cc3nc(n2)O[C@H](C)COCC[C@H](C)Oc2ccc4[nH]nc-3c4c2)C1` [Example 44, (8R,13S)-4-(3-methoxyazetidin-1-yl)-8,13-dimethyl-7,10,14-trioxa-5,19,20, 23-tetraazatetracyclo[13.5.2.1^2,6.0^18,21]tricosa-1(20),2(23),3,5,15(22),16, 18(21)-heptaene] the IC50 was < 10 nM.

`C[C@@H]1CCOCCOc2nccc(n2)-c2n[nH]c3ccc(cc23)O1` [Example 45, (13R)-13-methyl-7,10,14-trioxa-5,19,20,23-tetraazatetracyclo[13.5.2.1^2,6.0^18,21]tricosa-1(20),2(23),3,5, 15(22),16,18(21)-heptaene] was tested, and the IC50 was < 10 nM.

With `C[C@H]1CCOC[C@H](C)Oc2nccc(n2)-c2n[nH]c3ccc(cc23)O1` [Example 46, (8S,13S)-8,13-dimethyl-7,10,14-trioxa-5,19,20,23-tetraazatetracyclo [13.5.2.1^2,6.0^18,21]tricosa-1(20),2(23),3,5,15(22),16,18(21)-heptaene] the IC50 was < 100 nM.

In the case of `C[C@H]1CCOC[C@H](C)Oc2cncc(n2)-c2n[nH]c3ccc(cc23)O1` [Example 47, (8S,13S)-8,13-dimethyl-7,10,14-trioxa-4,19,20,23-tetraazatetracyclo[13.5.2.1^2,6.0^18,21]tricosa-1(20),2(23),3,5,15(22),16,18(21)-heptaene], the IC50 is reported as < 100 nM.

With `C[C@H]1CCOCCCc2csc(n2)-c2n[nH]c3ccc(cc23)O1` [Example 48, (12S)-12-methyl-9,13-dioxa-3-thia-18,19,22-triazatetracyclo[12.5.2.1^2,5.0^17,20]docosa-1(19),2(22),4,14(21),15,17(20)-hexaene] the IC50 was < 10 nM.

`CO[C@@H]1CCN(c2cc3nc(n2)O[C@H](C)COCC[C@H](C)Oc2ccc4[nH]nc-3c4c2)C1` [Example 49, (8R,13S)-4-[(3R)-3-methoxypyrrolidin-1-yl]-8,13-dimethyl-7,10,14-trioxa-5,19,20,23-tetraazatetracyclo[13.5.2.1^2,6.0^18,21]tricosa-1(20),2(23),3,5, 15(22),16,18(21)-heptaene] was tested, and the IC50 was < 10 nM.

`C[C@@H]1COCCOCCn2cc(cn2)-c2n[nH]c3ccc(cc23)O1` [Example 50, (13R)-13-methyl-8,11,14-trioxa-4,5,19,20-tetraazatetracyclo[13.5.2.1^2,5.0^18,21]tricosa-1(20),2(23),3,15(22),16,18(21)-hexaene] was tested, and the IC50 was < 10 nM.

In the case of `C[C@H]1COc2cncc(n2)-c2n[nH]c3ccc(cc23)O[C@@H](C)CCO1` [Example 51, (9S,13S)-9,13-dimethyl-7,10,14-trioxa-4,19,20,23-tetraazatetracyclo[13.5.2.1^2,6.0^18,21]tricosa-1(20),2(23),3,5,15(22),16,18(21)-heptaene], the IC50 is reported as < 100 nM.

For `C[C@H]1COCC[C@H](C)Oc2ccc3[nH]nc(c3c2)-c2cnn(c2)C1` [Example 52, (7R,12S)-7,12-dimethyl-9,13-dioxa-4,5,18,19-tetraazatetracyclo[12.5.2.1^2,5.0^17,20]docosa-1(19),2(22),3,14(21),15,17(20)-hexaene], the IC50 was < 10 nM.

For `C[C@@H]1CCOC[C@H](C)Oc2ccc3[nH]nc(c3c2)-c2ccnc(n2)O1` [Example 53, (8R,13S)-8,13-dimethyl-7,11,14-trioxa-5,19,20,23-tetraazatetracyclo[13.5.2.1^2,6.0^18,21]tricosa-1(20),2(23),3,5,15(22),16,18(21)-heptaene], the IC50 was < 10 nM.

In the case of `C[C@H]1COc2ccc3[nH]nc(c3c2)-c2cnn(c2)CCOCCO1` [Example 54, (12S)-12-methyl-8,11,14-trioxa-4,5,19,20-tetraazatetracyclo[13.5.2.1^2,5.0^18,21]tricosa-1(20),2(23),3,15(22),16,18(21)-hexaene], the IC50 is reported as < 10 nM.

In the case of `C[C@@H]1COCCCOc2ccc3[nH]nc(c3c2)-c2ccnc(n2)O1` [Example 55, (8R)-8-methyl-7,10,14-trioxa-5,19,20,23-tetraazatetracyclo[13.5.2.1^2,6.0^18,21] tricosa-1(20),2(23),3,5,15(22),16,18(21)heptaene], the IC50 is reported as < 10 nM.

`C[C@@H]1CCOCCOc2cccc(n2)-c2n[nH]c3ccc(cc23)O1` [Example 56, (13R)-13-methyl-7,10,14-trioxa-19,20,23-triazatetracyclo[13.5.2.1^2,6.0^18,21] tricosa-1(20),2(23),3,5,15(22),16,18(21)-heptaene] was tested, and the IC50 was < 10 nM.

With `C[C@H]1CCOCCCn2cnc(c2)-c2n[nH]c3ccc(cc23)O1` [Example 57, (12S)-12-methyl-9,13-dioxa-3,5,18,19-tetraazatetracyclo [12.5.2.1^2,5.0^17,20] docosa-1(19),2(22),3,14(21),15,17(20)-hexaene] the IC50 was < 1000 nM.

For `C[C@@H]1COc2cncc(n2)-c2n[nH]c3ccc(cc23)O[C@@H](C)CCO1` [Example 58, (9R,13S)-9,13-dimethyl-7,10,14-trioxa-4,19,20,23-tetraazatetracyclo[13.5.2.1^2,6.0^18,21]tricosa-1(20),2(23),3,5,15(22),16,18(21)-heptaene], the IC50 was < 100 nM.

With `C[C@H]1COc2nccc(n2)-c2n[nH]c3ccc(cc23)O[C@@H](C)CCO1` [Example 59, (9S,13S)-9,13-dimethyl-7,10,14-trioxa-5,19,20,23-tetraazatetracyclo [13.5.2.1^2,6.0^18,21]tricosa-1(20),2(23),3,5,15(22),16,18(21)-heptaene] the IC50 was < 100 nM.

For `C[C@@H]1COCCOc2ccc3[nH]nc(c3c2)-c2cnn(c2)CCO1` [Example 60, (9R)-9-methyl-8,11,14-trioxa-4,5,19,20-tetraazatetracyclo[13.5.2.1^2,5.0^18,21] tricosa-1(20),2(23),3,15(22),16,18(21)-hexaene], the IC50 was < 100 nM.

For `C[C@H]1COCCOc2ccc3[nH]nc(c3c2)-c2cnn(c2)CCO1` [Example 61, (9S)-9-methyl-8,11,14-trioxa-4,5,19,20-tetraazatetracyclo[13.5.2.1^2,5.0^18,21] tricosa-1(20),2(23),3,15(22),16,18(21)-hexaene], the IC50 was < 100 nM.

For `C[C@H]1CCOCCOCc2nc(cs2)-c2n[nH]c3ccc(cc23)O1` [Example 62, (13S)-13-methyl-7,10,14-trioxa-4-thia-19,20,23-triazatetracyclo[13.5.2.1^2,5.0^18,21]tricosa-1(20),2,5(23),15(22),16,18(21)-hexaene], the IC50 was < 100 nM.

With `c1cc2[nH]nc3c2cc1OCCOCCOCCn1cc-3cn1` [Example 63, 8,11,14-trioxa-4,5,19,20-tetraazatetracyclo[13.5.2.1^2,5.0^18,21]tricosa-1(20), 2(23),3,15(22),16,18(21)-hexaene] the IC50 was < 10 nM.

With `C[C@H]1COCCOCCOc2ccc3[nH]nc(c3c2)-c2cnn1c2` [Example 64, (6S)-6-methyl-8,11,14-trioxa-4,5,19,20-tetraazatetra cyclo[13.5.2.1^2,5.0^18,21]tricosa-1(20),2(23),3,15(22),16,18(21)-hexaene] the IC50 was < 10 nM.

For `C[C@@H]1COCCOCCOc2ccc3[nH]nc(c3c2)-c2cnn1c2` [Example 65, (6R)-6-methyl-8,11,14-trioxa-4,5,19,20-tetraazatetracyclo[13.5.2.1^2,5.0^18,21] tricosa-1(20),2(23),3,15(22),16,18(21)-hexaene], the IC50 was < 10 nM.

`C[C@H]1CCOCCOCC2=NC=C(S2)c2n[nH]c3ccc(cc23)O1` [Example 66, (13S)-13-methyl-7,10,14-trioxa-23-thia-4,19,20-triazatetracyclo[13.5.2.1^2,5.0^18,21]tricosa-1(20),2,4,15(22),16,18(21)-hexaene] was tested, and the IC50 was < 10 nM.

In the case of `C[C@@H]1COc2ccc3[nH]nc(c3c2)-c2cnn(c2)CCOCCO1` [Example 67, (12R)-12-methyl-8,11,14-trioxa-4,5,19,20-tetraazatetracyclo[13.5.2.1^2,5.0^18,21]tricosa-1(20),2(23),3,15(22),16,18(21)-hexaene], the IC50 is reported as < 10 nM.

In the case of `c1ncc2cc1CCOCCOCCOc1ccc3[nH]nc-2c3c1` [Example 68, 9,12,15-trioxa-4,20,21-triazatetracyclo[14.5.2.1^2,6.0^19,22]tetracosa-1(21), 2(24),3,5,16(23),17,19(22)-heptaene], the IC50 is reported as < 100 nM.

With `C[C@H]1COCCOCCc2cncc(c2)-c2n[nH]c3ccc(cc23)O1` [Example 69, (14S)-14-methyl-9,12,15-trioxa-4,20,21-triazatetracyclo[14.5.2.1^2,6.0^19,22] tetracosa-1(21),2(24),3,5,16(23),17,19(22)-heptaene] the IC50 was < 100 nM.

In the case of `C[C@@H]1COCCn2cc(cn2)-c2n[nH]c3ccc(cc23)OCCO1` [Example 70, (10R)-10-methyl-8,11,14-trioxa-4,5,19,20-tetraazatetracyclo[13.5.2.1^2,5.0^18,21]tricosa-1(20),2(23),3,15(22),16,18(21)-hexaene], the IC50 is reported as < 100 nM.

With `C[C@@H]1COCCOCCn2ncc(n2)-c2n[nH]c3ccc(cc23)O1` [Example 71, (13R)-13-methyl-8,11,14-trioxa-4,5,19,20,23-pentaazatetracyclo[13.5.2.1^2,5.0^18,21]tricosa-1(20),2(23),3,15(22),16,18(21)-hexaene] the IC50 was < 100 nM.

With `C[C@H]1COCCOCCn2cc(cc2C#N)-c2n[nH]c3ccc(cc23)O1` [Example 72, (13S)-13-methyl-8,11,14-trioxa-5,19,20-triazatetracyclo[13.5.2.1^2,5.0^18,21] tricosa-1(20),2(23),3,15(22),16,18(21)-hexaene-4-carbonitrile] the IC50 was < 10 nM.

From patent US20240246992A1, “MACROCYCLIC LRRK2 KINASE INHIBITORS” (LES LABORATOIRES SERVIER, priority 2021, published 2024)
